Measured values published in patent US9115122B2, “Non-ATP dependent inhibitors of extracellular signal-regulated kinase (ERK)” (UNIVERSITY OF MARYLAND, BALTIMORE, priority 2012, dated 2015).

What was measured:
Jurkat cells = assay: Dose-response growth inhibition (GI50) of select compounds; type: cell-based; settings: Homo sapiens, Jurkat
[1] = system: HeLa cervical carcinoma cells; assay: Colony formation assay; type: cell-based; settings: Homo sapiens, read-out: IC50 growth inhibition, colony formation, HeLa
Description: (§1) We have successfully used computer-aided drug design (CADD) to search for low-molecular-weight docking domain inhibitors of ERK. One of the compounds, identified as 76, binds ERK2 with a Kd value of 5 μM and blocks phosphorylation of the downstream ERK targets RSK-1 and Elk-1. Moreover, 76 inhibited growth of HeLa cervical carcinoma and A549 lung carcinoma cells as assessed by colony formation assay in a dose dependent manner with IC50 values of ˜20 μM.

[2] = system: A549 lung carcinoma cells; assay: Colony formation assay; type: cell-based; settings: Homo sapiens, read-out: IC50 growth inhibition, colony formation, A549
Description: as §1

ERK2 D319N = ERK2 D319N (Rattus norvegicus (Rat), UniProt P63086, D319N); assay: Fluorescence quenching (FQ) binding affinity; settings: read-out: KD D319N (Site1)
[3] = system: HeLa cervical carcinoma cells; assay: Cell proliferation WST-1 assay, single dose (Example 4); type: cell-based; settings: 100 μM, 48 hours
How it was run: (§2)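 Proliferation is measured by WST-1 reduction: after roughly 5000 cells per well rest 16-20 hours, they receive compound for 48 hours, and the signal is normalized to DMSO control.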

[4] = system: Jurkat T-cell leukemia cells; assay: as above; type: cell-based; settings: 100 μM, 48 hours
How it was run: as §2

RPMI-7951 melanoma cells = assay: as above; type: cell-based; settings: 100 μM, 48 hours
How it was run: as §2

A375 melanoma cells [5] = assay: as above; type: cell-based; settings: 100 μM, 48 hours
How it was run: as §2

HL-60 leukemic cells = assay: as above; type: cell-based; settings: 100 μM, 48 hours
How it was run: as §2

SK-MEL-28 melanoma cells [6] = assay: as above; type: cell-based; settings: 100 μM, 48 hours
How it was run: as §2

[7] = system: activator protein-1 (AP-1) promoter; assay: AP-1 promoter luciferase assay, HeLa cells (Example 4); type: cell-based; settings: Homo sapiens, EGF 25 ng/mL, read-out: estimated IC50 AP-1 promoter activity
Description: (§3) HeLa cells were seeded in 24-well plates (4×10^4 cells/well) and incubated 18 hours prior to achieve ˜60-70% confluent. Cells were transfected with activator protein-1 (pAP1(PMA)-TA-Luc; Clontech) or the serum response element (pGL4.33-SRE; Promega) luciferase reporter plasmids (250 ng/well) using Lipofectamine™ (Invitrogen). After 16 hours, cells were treated with increasing amount of compounds as indicated for 20 minutes, followed by stimulation with EGF (25 ng/mL) for 4.5 hr. The luciferase activity in the cell extracts was determined with a Dual Luciferase Assay System (Promega) according to the manufacturer's instructions. Luciferase activities were monitored with a Lumat LB 9507 luminometer (Berthold Technology) and data were normalized to the amount of protein in each sample.

ERK2 T157A = ERK2 T157A (Rattus norvegicus (Rat), UniProt P63086, T157A); assay: Fluorescence quenching (FQ) binding affinity; settings: read-out: KD T157A (Site1)
ERK2 T157A/D319N = ERK2 T157A/D319N (Rattus norvegicus (Rat), UniProt P63086, D319N/T157A); assay: Fluorescence quenching (FQ) binding affinity; settings: read-out: KD T157A/D319N (Site1)
[8] = system: serum response element (SRE); assay: SRE promoter luciferase assay, HeLa cells (Example 4); type: cell-based; settings: Homo sapiens, EGF 25 ng/mL, read-out: estimated IC50 SRE promoter activity
Description: as §3

HeLa cells = assay: Dose-response growth inhibition (GI50) of select compounds; type: cell-based; settings: Homo sapiens, HeLa
ERK2 wild type (WT) = ERK2 wild type (WT) (Rattus norvegicus (Rat), UniProt P63086); assay: Fluorescence quenching (FQ) binding affinity; settings: 1 nM to 20 μM test compound
RPMI7951 melanoma cells = assay: Dose-response growth inhibition (GI50) of select compounds; type: cell-based; settings: Homo sapiens, RPMI-7951, 48 h, two days
Description: (§4) An example of the dose response curve for compound 30h and the BRaf inhibitor PLX4032 for inhibiting the growth of melanoma cell lines is shown in FIG. 14. […] A summary of GI50 values for select compounds along with comparisons to know ERK pathway inhibitors in various cell lines is shown in Table 13. […] First, thiazolidinedione compounds have been identified to be selective inhibitors of cancer cell lines containing activated ERK signaling. Second, changes in the 4-ethoxyphenyl component of the parent compound 76 improve selectivity and potency for inhibiting melanoma cell growth. Third, compound 30h is a potent inhibitor of melanoma cell lines that have become resistant to the clinically relevant BRaf and MEK inhibitors. […] Lastly, 30h is as potent as the ATP-competitive pyrazolopyridazinamine ERK inhibitor (FR180204) in preventing melanoma cell proliferation and provides an alternative non-ATP-dependent approach to target cancer cells that are dependent on active ERK signaling.
(§5) Melanoma cells (A375, SK-MEL-28, and RPMI7951) were seeded at a density of 5,000 per well in 96-well plate. After overnight incubation, cells were treated with varying doses of PLX4032 (A) or 31h (B) for two days. Cell viability was determined by the addition of Cell Titer-Blue Reagent (20 μL/well) followed by 2 hours of incubation at 37° C. after which fluorescence was recorded (555/585 nm). Cell viability was expressed as percentage of vehicle control and data represent the average of three individual experiments.

A375 melanoma cells [9] = assay: as above; type: cell-based; settings: Homo sapiens, A-375, 48 h, two days
Description: as §4, §5

SK-MEL-28 melanoma cells [10] = assay: as above; type: cell-based; settings: Homo sapiens, SK-MEL-28, 48 h, two days
Description: as §4, §5

Sequence of ERK2 T157A (P63086 whole entry T157A): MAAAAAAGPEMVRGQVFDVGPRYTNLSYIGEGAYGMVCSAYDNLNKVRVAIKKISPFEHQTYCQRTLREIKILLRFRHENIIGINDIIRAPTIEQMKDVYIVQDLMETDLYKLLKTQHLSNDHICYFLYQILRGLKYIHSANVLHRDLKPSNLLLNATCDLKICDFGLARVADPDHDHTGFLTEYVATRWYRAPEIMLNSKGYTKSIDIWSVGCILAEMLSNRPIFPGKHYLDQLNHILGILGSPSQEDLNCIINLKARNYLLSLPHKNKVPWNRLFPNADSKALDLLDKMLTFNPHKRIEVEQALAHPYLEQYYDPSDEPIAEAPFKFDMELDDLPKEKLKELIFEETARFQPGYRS
Sequence of ERK2 D319N (P63086 whole entry D319N): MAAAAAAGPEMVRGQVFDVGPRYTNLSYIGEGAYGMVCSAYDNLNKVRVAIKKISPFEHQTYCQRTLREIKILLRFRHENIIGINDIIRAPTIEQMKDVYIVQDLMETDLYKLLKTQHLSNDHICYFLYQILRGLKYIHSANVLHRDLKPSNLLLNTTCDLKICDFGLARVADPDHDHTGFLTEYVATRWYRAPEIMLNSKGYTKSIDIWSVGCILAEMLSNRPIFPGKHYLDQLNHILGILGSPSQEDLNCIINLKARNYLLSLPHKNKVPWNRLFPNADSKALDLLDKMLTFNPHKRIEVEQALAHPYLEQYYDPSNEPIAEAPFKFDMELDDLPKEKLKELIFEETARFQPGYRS
Sequence of ERK2 wild type (WT) (P63086 whole entry): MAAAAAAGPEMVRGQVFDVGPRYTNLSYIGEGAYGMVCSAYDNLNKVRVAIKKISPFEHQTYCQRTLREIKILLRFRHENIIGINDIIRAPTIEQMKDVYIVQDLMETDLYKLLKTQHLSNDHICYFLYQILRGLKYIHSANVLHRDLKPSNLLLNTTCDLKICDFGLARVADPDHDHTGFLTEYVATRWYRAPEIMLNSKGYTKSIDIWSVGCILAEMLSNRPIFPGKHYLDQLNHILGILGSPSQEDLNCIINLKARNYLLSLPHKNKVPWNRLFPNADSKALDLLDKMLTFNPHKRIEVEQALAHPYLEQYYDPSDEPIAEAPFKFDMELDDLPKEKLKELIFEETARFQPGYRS
Sequence of ERK2 T157A/D319N (P63086 whole entry T157A/D319N): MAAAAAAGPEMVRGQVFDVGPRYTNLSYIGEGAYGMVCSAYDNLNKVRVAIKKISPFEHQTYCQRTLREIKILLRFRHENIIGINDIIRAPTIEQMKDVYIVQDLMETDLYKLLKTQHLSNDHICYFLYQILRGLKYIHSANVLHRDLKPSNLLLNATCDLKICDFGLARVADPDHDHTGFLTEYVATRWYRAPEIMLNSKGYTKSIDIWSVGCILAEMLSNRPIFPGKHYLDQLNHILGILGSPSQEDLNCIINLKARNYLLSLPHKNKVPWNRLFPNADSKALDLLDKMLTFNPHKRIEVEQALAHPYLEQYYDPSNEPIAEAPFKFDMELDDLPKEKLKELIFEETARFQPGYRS

Compound: CCOc1ccc(/C=C2\SC(=O)N(CCN)C2=O)cc1 [Compound 76, (Z)-3-(2-aminoethyl)-5-(4-ethoxybenzylidene)thiazolidine-2,4-dione]
- GI50 (Jurkat cells): > 100 µM
- IC50 [1]: ~20 µM
- IC50 [2]: ~20 µM
- Kd (ERK2 D319N): 7 ± 1 µM
- Cell Viability (% of Vehicle) HeLa [3]: 53 ± 3 % of Vehicle
- Cell Viability (% of Vehicle) Jurkat [4]: 59 ± 5 % of Vehicle
- Cell Viability (% of Vehicle) RPMI-7951 (RPMI-7951 melanoma cells): 0.3 ± 0.02 % of Vehicle
- Cell Viability (% of Vehicle) A375 (A375 melanoma cells [5]): 2.1 ± 2 % of Vehicle
- Cell Viability (% of Vehicle) HL-60 (HL-60 leukemic cells): 4.4 ± 1 % of Vehicle
- Cell Viability (% of Vehicle) SK-MEL-28 (SK-MEL-28 melanoma cells [6]): 11 ± 7 % of Vehicle
- IC50 [7]: ≤ 5 µM
- Kd (ERK2 T157A): 6.1 ± 0.6 µM
- Kd (ERK2 T157A/D319N): 6.4 ± 0.3 µM
- IC50 [8]: ≤ 5 µM
- GI50 (HeLa cells): > 100 µM
- Kd (ERK2 wild type (WT)): 5 µM
- GI50 (RPMI7951 melanoma cells): 46 µM
- GI50 (A375 melanoma cells [9]): 29 µM
- GI50 (SK-MEL-28 melanoma cells [10]): 34 µM
